Where no end group is shown, it is not given here.
Test system: PBMCs from HCMV seropositive subjects
Assay: ex vivo IFN-γ Fluorospot assay
Format: cell-based, human
Conditions: 19 HCMV seropositive subjects, individual peptide 10 ug/ml, 20 hr; for No. of subjects responding: IFN-γ; for Magnitude of response: IFN-γ spots (FIG. 1: SFC/10^6 PBMC; no unit in table)
Outline: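 PBMC (200,000/well, triplicate) from HCMV-seropositive donors were stimulated for 20 h at 37 °C with 15-mer peptide pools (2 ug/ml) or single peptides (10 ug/ml). IFN-γ spots were counted by Fluorospot. Positivity required ≥20 SFC/10^6 PBMC over DMSO background, stimulation index >2 and p<0.05.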

With 78 (KELSKINPSAILSAI) [compound 78] the “No. of subjects responding” value was 3 and the Magnitude of response was 18557.
In the case of 152 (LPLCSTARLRLAPRR) [compound 152], the “No. of subjects responding” value is reported as 1 and the Magnitude of response is reported as 467.
In the case of “119 (APFRVAAAGETPLGR; ends and bridges not checked) [compound 119]”, the “No. of subjects responding” value is reported as 6 and the Magnitude of response is reported as 1089.
With 234 (FIMRQLMMYPLVLPF) [compound 234] the “No. of subjects responding” value was 1 and the Magnitude of response was 530.
For “4 (GLWVSSYLVRRPMTI; ends and bridges not checked) [compound 4]”, the “No. of subjects responding” value was 2 and the Magnitude of response was 890.
With 30 (HLLRNIKTAFGMRVL) [compound 30] the “No. of subjects responding” value was 2 and the Magnitude of response was 1093.
With 192 (QVEILKPRGVRHRAI) [compound 192] the “No. of subjects responding” value was 9 and the Magnitude of response was 3468.
9 (ALFTHFVGRPRHCRL) [compound 9] was tested, and the “No. of subjects responding” value was 1 and the Magnitude of response was 57.
154 (RCCTLRFRRRCRARC) [compound 154] was tested, and the “No. of subjects responding” value was 2 and the Magnitude of response was 713.
With 206 (IRRWWISVAIVIFIG) [compound 206] the “No. of subjects responding” value was 3 and the Magnitude of response was 10480.
